The values below come from US11647737B2, “Genetically modified rabbit expressing an exogenous protein in milk” (APPLIED STEMCELL, INC., priority 2016, dated 2023).

For data set [1], the system named is beta-casein locus in rabbit embryos. Kind of data set: td-Tomato knock-in efficiency at the beta-casein locus in rabbit embryos. In kind it is cell-based. Conditions: RS-1 7.5 μM; control 8.3%; P<0.05. The procedure:
A mixture containing 100 ng/μl donor DNA, 100 ng/μl Cas9 mRNA and 6 ng/μl sgRNA were used for cytoplasm microinjection. Embryos were subsequently cultured to blastocyst stages, genomic DNA extracted, and subjected to PCR using primer sets described in FIG. 4. Embryos that are positive containing the desired band size for both primer sets LF1/LR1 and RF1/RR1 are considered putative knock-in.

The test system of data set [2] is ROSA26 like locus (RLL) in rabbit embryos. The settings on record: for knock-in rate: 20 h, control 4.8%.
Experimental: We first tested the effects of SCR7 and RS-1 on Cas9 mediated HDR at a ROSA26 like locus (RLL) in the rabbit genome (FIG. 6). Donor template DNAs were co-microinjected with Cas9 mRNA and sgRNA for RLL locus. After injection, the embryos were treated for 20 h in a serial concentration of SCR7: 0 μM (control), 20 μM, 40 μM, and 80 μM, or in RS-1 at 0 μM (control), 7.5 μM, and 15 μM.
The next data set has as its system β-casein (rbCSN2). Kind of data set: In vitro validation of sgRNAs in microinjected rabbit embryos (PCR and sequencing of blastocysts), β-casein. The class given is cell-based. Conditions: 100 ng/μl Cas9 mRNA and 6 ng/μl sgRNA. The method, then:
All animal maintenance, care and use procedures were reviewed and approved by the University Committee on the Use and Care of Animals (UCUCA) of the University of Michigan. Embryos were harvested from superovulated embryo donor female rabbits as previously described. Microinjection was performed on embryos 19-21 h post insemination using a micromanipulator under the inverted microscope equipped with a differential interference contrast (DIC) device. A mixture containing 100 ng/μl Cas9 mRNA and 6 ng/μl sgRNA were used for cytoplasmic microinjection. The injected embryos were washed and cultured in vitro for 3-4 days until they reached blastocyst stage.
Blastocyst stage embryos were lysed individually and genomic DNA extracted. To get better PCR reaction, the whole genome was replicated using a REPLI-g® Mini Kit (Qiagen, Germantown, Md.) following the manufacturer's protocol with slight modification. PCR products using primer set LF1/RR1 were purified and sequenced for detection of indel mutations proximate to the sgRNA target sequence (FIG. 4). On the chromatographic curves, peaks on peaks approximate the targeting site indicate an indel event. Mutation Surveyor (Softgenetics, State College, Pa.) was used to analyze sequencing results.
In total, we performed microinjection to 102 pronuclear stage embryos with sgRNA#3 targeting β-casein (rbCSN2) (see Table 1). […]

Read-outs that look alike come from different tables or passages of the source.

For the molecule `O=C(Nc1ccc(Br)cc1)c1ccc(Br)c(S(=O)(=O)NCc2ccccc2)c1` [RS-1], in data set [1], the “% KI (knock-in rate)” value was found to be 28.9%. Besides, the knock-in rate is reported as 26.1% in data set [2] (RS-1 7.5 μM) and 5.4% in data set [2] (RS-1 15 μM).
`O=c1[nH]c(=S)[nH]c(N=Cc2ccccc2)c1N=Cc1ccccc1` [SCR7]: the overall knock-in efficiency in data set [2] (embryos treated 20 h with SCR7 20 μM, 40 μM, 80 μM, control 7.1%) is reported as 7.7-9.4%. In data set [2] (embryos treated 20 h with SCR7 20-80 μM vs control), the “effect on overall knock-in efficiency” value was “no significant effects”.
On to “sgRNA#3: sgRNA targeting rabbit β-Casein intron 1, GGATATCATGTTAGAGTGCCTGG (SEQ ID NO: 1) (listed as DNA, chemistry not given here; the letters are possibly those of the target site)”, for which the “Bi-allelic mutations (%)” value in the data set on β-casein (rbCSN2) is 36%. Moreover, the “blastocysts with insertions or deletions at or proximate the targeted cleavage site (#mutated, %)” value in the data set with β-casein (rbCSN2) (56 blastocysts sequenced) is listed as 63%.
